The source of these data is patent publication US9163042B2, “Prodrugs of pyridone amides useful as modulators of sodium channels” (VERTEX PHARMACEUTICALS INCORPORATED, priority 2013, dated 2015).

Where two headings read alike, the source gives them in different places. Some results are limits rather than exact numbers.

In data set [1] the target is human Nav1.8 (Homo sapiens (Human), UniProt Q9Y5Y9). As to the kind of experiment: E-VIPR optical membrane potential assay with electrical stimulation (NaV1.8 IC50 activity). It counts as cell-based. An excerpt: Sodium channels are voltage-dependent proteins that can be activated by inducing membrane voltage changes by applying electric fields. The electrical stimulation instrument and methods of use are described in Ion Channel Assay Methods PCT/US01/21652, herein incorporated by reference and are referred to as E-VIPR. The instrument comprises a microtiter plate handler, an optical system for exciting the coumarin dye while simultaneously recording the coumarin and oxonol emissions, a waveform generator, a current- or voltage-controlled amplifier, and a device for inserting electrodes in well. Under integrated computer control, this instrument passes user-programmed electrical stimulus protocols to cells within the wells of the microtiter plate.
Sequence of human Nav1.8 (Q9Y5Y9 whole entry): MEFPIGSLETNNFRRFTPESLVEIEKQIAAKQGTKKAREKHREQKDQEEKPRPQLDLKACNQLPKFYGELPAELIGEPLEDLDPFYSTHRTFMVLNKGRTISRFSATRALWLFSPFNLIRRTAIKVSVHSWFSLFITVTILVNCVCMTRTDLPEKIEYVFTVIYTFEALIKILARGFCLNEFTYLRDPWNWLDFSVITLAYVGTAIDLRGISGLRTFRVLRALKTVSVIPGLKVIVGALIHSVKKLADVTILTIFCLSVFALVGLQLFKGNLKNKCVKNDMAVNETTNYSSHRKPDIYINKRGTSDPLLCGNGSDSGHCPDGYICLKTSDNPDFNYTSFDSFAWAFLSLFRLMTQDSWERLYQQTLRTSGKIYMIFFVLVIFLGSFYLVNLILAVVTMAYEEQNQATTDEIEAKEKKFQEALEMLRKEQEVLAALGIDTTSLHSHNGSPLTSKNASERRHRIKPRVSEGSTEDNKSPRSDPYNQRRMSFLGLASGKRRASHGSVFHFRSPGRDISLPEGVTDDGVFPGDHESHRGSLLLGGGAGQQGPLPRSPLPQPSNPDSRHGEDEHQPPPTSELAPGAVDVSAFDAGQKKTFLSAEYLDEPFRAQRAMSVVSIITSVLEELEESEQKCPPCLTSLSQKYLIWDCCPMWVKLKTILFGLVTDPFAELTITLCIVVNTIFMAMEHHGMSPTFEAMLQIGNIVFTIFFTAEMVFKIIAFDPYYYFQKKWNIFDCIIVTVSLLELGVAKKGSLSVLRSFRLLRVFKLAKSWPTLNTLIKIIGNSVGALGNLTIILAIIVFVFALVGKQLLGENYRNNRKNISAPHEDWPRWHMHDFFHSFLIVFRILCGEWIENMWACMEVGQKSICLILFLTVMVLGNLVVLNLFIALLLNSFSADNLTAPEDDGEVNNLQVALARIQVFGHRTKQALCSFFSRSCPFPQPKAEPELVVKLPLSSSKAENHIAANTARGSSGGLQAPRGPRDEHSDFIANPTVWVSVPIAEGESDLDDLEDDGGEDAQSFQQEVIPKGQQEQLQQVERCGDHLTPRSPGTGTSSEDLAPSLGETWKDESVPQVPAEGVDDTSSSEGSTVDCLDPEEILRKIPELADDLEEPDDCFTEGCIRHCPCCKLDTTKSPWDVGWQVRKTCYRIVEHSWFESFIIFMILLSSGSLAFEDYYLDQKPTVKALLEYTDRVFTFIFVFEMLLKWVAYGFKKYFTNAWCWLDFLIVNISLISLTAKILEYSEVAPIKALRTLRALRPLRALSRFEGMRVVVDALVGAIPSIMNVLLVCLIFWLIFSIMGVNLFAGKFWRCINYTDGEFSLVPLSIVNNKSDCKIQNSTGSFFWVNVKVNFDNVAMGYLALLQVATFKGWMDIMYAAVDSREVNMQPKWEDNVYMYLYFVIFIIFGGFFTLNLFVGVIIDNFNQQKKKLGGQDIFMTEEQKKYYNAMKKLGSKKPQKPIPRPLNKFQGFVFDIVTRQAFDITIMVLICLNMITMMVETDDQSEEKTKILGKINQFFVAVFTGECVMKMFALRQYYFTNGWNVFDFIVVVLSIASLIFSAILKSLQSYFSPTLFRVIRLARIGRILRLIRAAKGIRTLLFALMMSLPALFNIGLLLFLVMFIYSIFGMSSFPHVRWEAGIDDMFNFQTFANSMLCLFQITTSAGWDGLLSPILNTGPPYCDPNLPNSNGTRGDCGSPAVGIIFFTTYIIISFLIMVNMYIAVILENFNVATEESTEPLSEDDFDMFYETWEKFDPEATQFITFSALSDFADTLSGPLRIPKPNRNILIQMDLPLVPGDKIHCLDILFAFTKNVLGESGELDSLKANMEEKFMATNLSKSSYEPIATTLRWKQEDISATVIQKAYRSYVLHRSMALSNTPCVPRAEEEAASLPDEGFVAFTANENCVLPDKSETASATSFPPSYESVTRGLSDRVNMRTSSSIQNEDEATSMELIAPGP
24 hours before the assay on E-VIPR, HEK cells expressing human Nav1.8 were seeded in 384-well poly-lysine coated plates at 15,000-20,000 cells per well. […] Cells were grown in vented cap flasks, in 90% humidity and 5% CO2.
1) Pre-spotted compounds (in neat DMSO) into compound plates. […] Final compound plate volume was 80 μL (80-fold intermediate dilution from 1 μL DMSO spot; 160-fold final dilution after transfer to cell plate).
2) Prepared Hexyl Dye Solution.
3) Prepared cell plates. On the day of the assay, medium was aspirated and cells were washed three times with 100 μL of Bath1 Solution, maintaining 25 μL residual volume in each well.
4) Dispensed 25 μL per well of Hexyl Dye Solution into cell plates. Incubated for 20-35 minutes at room temp or ambient conditions.
5) Dispensed 80 μL per well of Bath1 into compound plates. Acid Yellow-17 (1 mM) was added and Potassium Chloride was altered from 4.5 to 20 mM depending on the NaV subtype and assay sensitivity.
6) Washed cell plates three times with 100 μL per well of Bath1, leaving 25 μL of residual volume. […] Incubated for 20-35 minutes at room temp/ambient condition.
7) Read Plate on E-VIPR. […] A pre-stimulus recording was performed for 0.5 seconds to obtain the un-stimulated intensities baseline. The stimulatory waveform was followed by 0.5 seconds of post-stimulation recording to examine the relaxation to the resting state.
Data was analyzed and reported as normalized ratios of emission intensities measured in the 460 nm and 580 nm channels. The response as a function of time was reported as the ratios obtained using the following formula: […]
The data was further reduced by calculating the initial (Ri) and final (Rf) ratios. These were the average ratio values during part or all of the pre-stimulation period, and during sample points during the stimulation period. The response to the stimulus R=Rf/Ri was then calculated and reported as a function of time.
Control responses were obtained by performing assays in the presence of a compound with the desired properties (positive control), such as tetracaine, and in the absence of pharmacological agents (negative control). Responses to the negative (N) and positive (P) controls were calculated as above.

The nature of data set [2]: Aqueous solubility study. In kind it is physicochemical. Conditions: for solubility at 24 h: thermodynamic from solid. The protocol: The aqueous solubility of compound 9 and 9a were determined according to the following procedure. Solubility data was determined at ambient conditions by equilibrating the compound with water on a shaking bed for 24 hours, followed by centrifugation and separation of the saturated solutions. The pH value of each media was measured before centrifugation, and the saturated solutions were assayed by HPLC.

A short description of data set [3]: Rat oral pharmacokinetic study. In kind it is in vivo, Sprague Dawley rats. Conditions: Sprague Dawley, mean ± SD. Here is the method:
(§1) Sample Analysis. […] Before extraction, plasma samples were diluted using blank plasma at an appropriate dilution factor, as necessary, depending on the dose level. […] After centrifugation, the supernatant extract (10 μL) was injected onto the LC/MS/MS system. The HPLC system included a Phenomenex Synergy Kinetix C8 column, 2.6 micron, 2.0 mm diameter×75 mm long eluted with a gradient mobile phase consisting of 0.1% formic acid in water or in acetonitrile.
(§2) The analytes were detected by MS/MS with Electrospray Ionization (ESI) in the mode of multiple reaction monitoring (MRM). […] The intra-day and inter-day assay accuracy was within 20% of the nominal values. The intra- and inter-day assay variability was ≦20%.
(§3) Pharmacokinetic Data Analysis.
(§4) Key pharmacokinetic parameters such as AUCall, AUCextra, Cmax, tmax, Cl, Vss and t1/2 were determined.
(§5) Statistical Data Analysis. Descriptive statistical data of pharmacokinetic parameters were calculated, including the mean, standard deviation (SD), using Watson LIMS version 7.4 SP3 or Microsoft Excel 2000.
Groups of male and female Sprague Dawley rats (n=3 per dose group) were administered single nominal oral doses of 10, 100, 400, 640, 1000 mg/kg (for males) and 30, 100, 300, 640, 1000 mg/kg (for females) of compound 9 by gavage. Compound 9 was formulated in either 30% PEG400 and 10% TPGS in water or 5% TPGS, 5% PVP-K30 in 50 mM Citrate, pH 5. Animals had free access to food and water before and after dosing. Blood samples (approximately 0.25 mL each) were collected via a carotid artery catheter prior to dosing and at 0.25, 0.5, 1, 2, 4, 8, 12, 24, 48 and 72 hours post dose. Each blood sample was collected into a tube that was kept on wet ice and contained potassium EDTA as the anticoagulant. Plasma was separated and stored at approximately −70° C. until analysis.

The nature of data set [4]: Rat IV pharmacokinetic study. Conditions: Sprague Dawley, male rat, single IV bolus 1 mg/kg of compound 9, DMI vehicle, analyte 9a in plasma; for AUC: male, rat, plasma, iv, 1 mg/kg. In kind it is in vivo, Sprague Dawley rats. Here is the method:
as §1, §2, §3, §4, §5
Male Sprague Dawley rats (n=3) were administered a single nominal IV bolus dose of 1 mg/kg of compound 9 via a jugular vein cannula. […] Animals had free access to food and water before and after dosing. Blood samples (approximately 0.25 mL each) were collected via a carotid artery catheter prior to dosing and at 5 min, 10 min, 0.25, 0.5, 1, 2, 4, 8, 12, 24 hours post dose. Each blood sample was collected into a tube that was kept on wet ice and contained potassium EDTA as the anticoagulant. Plasma was separated and stored at approximately −70° C. until analysis.
Plasma concentration vs. time data were subjected to noncompartmental pharmacokinetic (PK) analysis.

[5] abbreviates: female rat, single PO 30 mg/kg of compound 9, 5% TPGS/5% PVP-K30/50 mM Citrate pH 5, analyte 9a in plasma.
Setting [6] is: female rat, single PO 100 mg/kg of compound 9, 5% TPGS/5% PVP-K30/50 mM Citrate pH 5, analyte 9a in plasma.
Setting [7] is: female rat, single PO 300 mg/kg of compound 9, 5% TPGS/5% PVP-K30/50 mM Citrate pH 5, analyte 9a in plasma.
Setting [8] is: female rat, single PO 640 mg/kg of compound 9, 5% TPGS/5% PVP-K30/50 mM Citrate pH 5, analyte 9a in plasma.
[9] abbreviates: female rat, single PO 1000 mg/kg of compound 9, 5% TPGS/5% PVP-K30/50 mM Citrate pH 5, analyte 9a in plasma.
[10] abbreviates: male rat, single PO 10 mg/kg of compound 9, 5% TPGS/5% PVP-K30/50 mM Citrate pH 5, analyte 9a in plasma.
[11] abbreviates: male rat, single PO 100 mg/kg of compound 9, 5% TPGS/5% PVP-K30/50 mM Citrate pH 5, analyte 9a in plasma.
Where [12] appears, read: male rat, single PO 400 mg/kg of compound 9, 5% TPGS/5% PVP-K30/50 mM Citrate pH 5, analyte 9a in plasma.
[13] abbreviates: male rat, single PO 640 mg/kg of compound 9, 5% TPGS/5% PVP-K30/50 mM Citrate pH 5, analyte 9a in plasma.
Setting [14] is: male rat, single PO 1000 mg/kg of compound 9, 5% TPGS/5% PVP-K30/50 mM Citrate pH 5, analyte 9a in plasma.

Broadly, the IC50 is the midpoint of a concentration-inhibition curve. A high value points to weaker potency. The compound `COc1cc(F)ccc1Oc1cc(Cl)c(Cl)cc1C(=O)Nc1ccn(COP(=O)(O)O)c(=O)c1` [Compound 1, (4-(4,5-dichloro-2-(4-fluoro-2-methoxyphenoxy)benzamido)-2-oxopyridin-1(2H)-yl)methyl dihydrogen phosphate] registered an IC50 in data set [1] of 4 nM.
`COc1cc(F)ccc1Oc1cc(C(F)(F)C(F)(F)F)ccc1C(=O)Nc1ccn(COP(=O)(O)O)c(=O)c1` [Compound 2, (4-(2-(4-fluoro-2-methoxyphenoxy)-4-(perfluoroethyl)benzamido)-2-oxopyridin-1(2H)-yl)methyl dihydrogen phosphate]: the IC50 in data set [1] came out at 28 nM.
By solubility is commonly meant the dissolved amount per volume that the medium holds. The Solubility is the dissolved amount per volume that the medium holds. Usually Cmax stands for the peak of the concentration-time curve. In general, Tmax refers to the time from dosing to the highest level. As a reminder, the clearance is the volume of plasma or blood freed of the substance per unit of time. On to `Cc1cc(F)ccc1Oc1cc(C(F)(F)F)ccc1C(=O)Nc1cc[nH]c(=O)c1` [Compound 9a, 2-(4-fluoro-2-methylphenoxy)-N-(2-oxo-1,2-dihydropyridin-4-yl)-4-(trifluoromethyl)benzamide], for which the solubility at 24 h is < 1 µg/mL in data set [2] (aqueous medium, simulated gastric fluid, pH 1.2, crystalline, ambient conditions, 24 hours, read-out: Solubility) and < 1 µg/mL in data set [2] (water, pH 6.0, read-out: aqueous solubility in water). Also, in data set [2] (pH 6.0, crystalline, ambient conditions, 24 hours), the Solubility is <1 µg/mL. The AUC in data set [3] (setting [5]) is 99200 ± 6880 ng·h/mL; in data set [3] (setting [6]), 187000 ± 17500 ng·h/mL; in data set [3] (setting [7]), 282000 ± 74200 ng·h/mL; in data set [3] (setting [8]), 324000 ± 32800 ng·h/mL; in data set [3] (setting [9]) it was 345000 ± 69600 ng·h/mL; in data set [3] (setting [10]) it was 3600 ± 240 ng·h/mL. Also, the AUC in data set [3] (setting [11]) amounted to 24800 ± 4600 ng·h/mL; in data set [3] (setting [12]), 68600 ± 25700 ng·h/mL; in data set [3] (setting [13]) it was 74900 ± 24100 ng·h/mL; in data set [3] (setting [14]), 88500 ± 41000 ng·h/mL; in data set [4] (read-out: AUCall), 592 ng·h/mL; in data set [4] (read-out: AUCextra) it was 611 ng·h/mL. The Cmax in data set [3] (setting [5]) worked out at 3330 ± 430 ng/mL; in data set [3] (setting [6]), 5820 ± 580 ng/mL; in data set [3] (setting [7]), 7900 ± 1300 ng/mL; in data set [3] (setting [8]), 10000 ± 1450 ng/mL; in data set [3] (setting [9]) it was 10600 ± 3580 ng/mL; in data set [3] (setting [10]), 290 ± 50 ng/mL. Further, the Cmax in data set [3] (setting [11]) is 1670 ± 190 ng/mL; in data set [3] (setting [12]), 3740 ± 1250 ng/mL; in data set [3] (setting [13]), 4760 ± 980 ng/mL; in data set [3] (setting [14]), 4540 ± 910 ng/mL. Besides, the Tmax came out at 6.67 ± 2.31 h in data set [3] (setting [5]); 12 h in data set [3] (setting [6]); 10.7 ± 2.31 h in data set [3] (setting [7]); 9.33 ± 2.31 h in data set [3] (setting [8]); 13.3 ± 9.24 h in data set [3] (setting [9]); 5.33 ± 2.31 h in data set [3] (setting [10]). For the same compound, the Tmax in data set [3] (setting [11]) amounted to 8 h; in data set [3] (setting [12]), 5.67 ± 4.04 h; in data set [3] (setting [13]), 6 ± 3.46 h; in data set [3] (setting [14]), 6.67 ± 2.31 h. For the same compound, the half-life was 648 ± 96 min in data set [3] (setting [5]); 549 ± 26.4 min in data set [3] (setting [6]); 786 ± 159 min in data set [3] (setting [7]); 451 ± 112 min in data set [3] (setting [8]); 474 ± 202 min in data set [3] (setting [9]); 228 ± 43.8 min in data set [3] (setting [10]). Also, the half-life in data set [3] (setting [11]) is 322 ± 138 min; in data set [3] (setting [12]) it was 312 ± 118 min; in data set [3] (setting [13]), 415 ± 110 min; in data set [3] (setting [14]) it was 477 ± 134 min; in data set [4] (read-out: t½ (converted)) it was 146 min. For the same compound, the C0 in data set [4] amounted to 259 ng/mL. In addition, in data set [4], the clearance was 18.7 mL/min/kg. The Vd in data set [4] (read-out: Vss) was 3.77 L/kg.
With `Cc1cc(F)ccc1Oc1ccc(C(F)(F)F)cc1C(=O)Nc1ccn(COP(=O)(O)O)c(=O)c1` [Compound 10, (4-(2-(4-fluoro-2-methylphenoxy)-5-(trifluoromethyl)benzamido)-2-oxopyridin-1(2H)-yl)methyl dihydrogen phosphate], in data set [1], half-maximal inhibition (IC50) was put at 86 nM.
In the case of `Cc1cc(F)ccc1Oc1cc(Cl)ccc1C(=O)Nc1ccn(COP(=O)(O)O)c(=O)c1` [Compound 13, (4-(4-chloro-2-(4-fluoro-2-methylphenoxy)benzamido)-2-oxopyridin-1(2H)-yl)methyl dihydrogen phosphate], in data set [1], the IC50 amounted to 329 nM.
The compound `O=C(Nc1ccn(COP(=O)(O)O)c(=O)c1)c1cc(C(F)(F)F)ccc1Oc1ccc(F)cc1` [Compound 18, (4-(2-(4-fluorophenoxy)-5-(trifluoromethyl)benzamido)-2-oxopyridin-1(2H)-yl)methyl dihydrogen phosphate] had an IC50 in data set [1] of 457 nM.
